Counter-ions that a name gives are not always drawn.
Tests used:
[1] = In vitro test - hydrolysis in human plasma (half life); type: in vitro ADME; conditions: 37° C., 2.3·10^-3 M, trans form, hydrochloride salt, HPLC, UV 210 nm
Excerpt: (§1) In the biological tests described in sections A, B and C below, the test compounds were used in trans form and in the form of hydrochloride salt. The test results given in Tables 1 and 2 are average values.
(§2) The compounds of the present invention, which are esters of tranexamic acid, are converted to tranexamic acid in vivo either during the absorption through the gastro-intestinal wall or by enzymes present in the blood. In order to test the stability of compounds of the invention the half life in human plasma of a number of compounds of the invention was compared to the half life of the same ester in a phosphate buffer of the same pH. The half life, that is, the time within which the amount of unhydrolysed test compound is reduced by 50%, was calculated from the decrease of intact test compound with time. This decrease of intact test compound was monitored by UV-detection at 210 nm using high performance liquid chromatography (HPLC) in the reversed phase mode with mixtures of methanol and phosphate buffer as eluents. The stability in plasma was studied by addition of […] of plasma thermostated to 37° C. The concentration of the test compound in plasma amounted to 2.3·10^-3 M. The plasma samples were injected directly into the column after filtration. The half life in buffer solution were determined in the same way except that no filtration was needed.

[2] = system: fibrinolytic activity induced by porcine tissue activator; test: Antifibrinolytic activity in chandler loop (inhibition of clot lysis induced by porcine tissue activator); type: biochemical, human blood; porcine tissue activator; conditions: for Percent inhibition of fibrinolytic activity induced by porcine tissue activator: 1 micromole/liter, human blood, 20 PU/ml porcine tissue activator, six hours, mean
Method: as §1
The antifibrinolytic properties of tranexamic acid and a number of compounds of the invention were tested in an artificial circulating blood system, the chandler loop (Chandler, A. B., In vitro thrombolytic coagulation of blood. A method for producing a thrombus. Lab.Invest. 7, 110, 1958.) Human blood was mixed with ^125 I-labelled fibrinogen, divided into 1.5 ml portions and filled into plastic tubings. After recalcification the loops were rotated for 24 hours during which ^125 I-labelled clots were formed. Fibrinolysis as measured with release of ^125 I-labelled fibrin degradation products from the clot, was initiated by adding 20 PU/ml of porcine tissue activator to the loops. Clot lysis was followed during six hours and the cumulative release of ^125 I FDP was plotted v.s. time of lysis. […] The effect on the clot lysis of compounds of the invention was tested in this system and compared to the inhibitory effect of tranexamic acid. No significant difference (p>0.05) between the antifibrinolytic effect of tranexamic acid and the tested compounds of the invention was found in this test system.

[3] = In vitro test - hydrolysis in phosphate buffer pH 7.5 (half life); type: physicochemical; conditions: trans form, hydrochloride salt, HPLC, UV 210 nm
Excerpt: as §1, §2

[4] = In vivo test - absorption in rats after oral administration (tranexamic acid recovered in urine); conditions: for Absorption after oral administration, in words: compared to tranexamic acid
Method: as §1
Rats were chosen to study the absorption after oral administration of compounds of the invention which are esters of tranexamic acid. Absorption of tranexamic acid itself is very poor in rats.
The determination of absorption in the rats was performed in the following way: Male rats in groups of three or four were given the test compound by gavage (1 mmol/kg-0.1 mmol/kg, 2 ml/kg). The urine was collected at the intervals 0-6, 6-24, 24-48 and 48-72 hours. At the end of each interval the cages were rinsed with 20 ml of distilled water, which also was collected and analysed. The urine sampls were then analysed for their content of tranexamic acid by a gaschromatographic method according to Wessman J., Stromberg S., Anal. Chem. 49 (1977) 369. The results are shown in table 1, where the total absorption is given as the molar amount of tranexamic acid which was recovered in the urine samples compared to the amount of administered test compound, also calculated as tranexamic acid.

[5] = normally, clinical use; cited from earlier work
[6] = large oral intake, about 3 to about 6 grams per 24 hours; cited from earlier work

half-life at 2300 µM [1]	half-life at 2300 µM [3]	SMILES	Percent inhibition of fibrinolytic activity induced by porcine tissue activator [2]	further results
9 min	–	CC(=O)OC(C)OC(=O)[C@H]1CC[C@H](CN)CC1 (stereo partly drawn) [Example 5, 1-(acetyloxy) ethyl trans-4-aminomethylcyclohexanecarboxylate]	19.5 ± 4.7%	–
0.5 min	–	CC(C)C(=O)OCOC(=O)[C@H]1CC[C@H](CN)CC1 [Example 6, isobutyryloxymethyl trans-4-aminomethylcyclohexanecarboxylate]	32.4 ± 5.3%	–
1.5 min	26 h	NC[C@H]1CC[C@H](C(=O)OCOC(=O)[C@H]2CC[C@H](CN)CC2)CC1 [Example 11, methandiol bis-(trans-4-aminomethylcyclohexanecarboxylate) dihydrochloride]	–	–
11 min	70 h	CC(OC(=O)[C@H]1CC[C@H](CN)CC1)OC(=O)[C@H]1CC[C@H](CN)CC1 [Example 13, 1,1-Ethandiol bis-(trans-4-aminomethylcyclohexanecarboxylate) dihydrochloride]	–	–

Second part, the compound before the results:

SMILES	half-life at 2300 µM [1]	half-life at 2300 µM [3]	Percent inhibition of fibrinolytic activity induced by porcine tissue activator [2]	further results
CC(C)(C)C(=O)OCOC(=O)[C@H]1CC[C@H](CN)CC1 [Example 1, pivaloyloxymethyl trans-4-aminomethylcyclohexanecarboxylate hydrochloride]	5 min	–	19.3 ± 4.3%	–
CCOC(=O)OC(C)OC(=O)[C@H]1CC[C@H](CN)CC1 (stereo partly drawn) [Example 3, 1-(ethyloxycarbonyloxy)ethyl trans-4-aminomethylcyclohexanecarboxylate hydrochloride]	1.5 min	90 h	23.4 ± 5.1%	–
CC(C)OC(=O)OC(C)OC(=O)[C@H]1CC[C@H](CN)CC1 (stereo partly drawn) [Example 4, 1-(isopropyloxycarbonyloxy)ethyl trans-4-aminomethylcyclohexanecarboxylate hydrochloride]	–	–	25.8 ± 5.5%	Absorption after oral administration, in words [4]: absorbed to a very high degree
CC(OC(=O)C(C)C)OC(=O)[C@H]1CC[C@H](CN)CC1 (stereo partly drawn) [Example 7, 1-(isobutyryloxy)ethyl trans-4-aminomethylcyclohexanecarboxylate]	–	–	23.8 ± 5.7%	–
CN(C)C(=O)C(OC(=O)[C@H]1CC[C@H](CN)CC1)OC(=O)[C@H]1CC[C@H](CN)CC1 [Example 16, 2,2-dihydroxy-N,N-dimethylacetamide bis-(trans-4-aminomethylcyclohexanecarboxylate)]	–	–	32.2 ± 4.7%	–
NC[C@H]1CC[C@H](C(=O)O)CC1 [Tranexamic acid, trans-4-aminomethylcyclohexanecarboxylic acid]	–	–	25.6 ± 3.9%	Absorption after oral administration, in words [4]: very poor; dose excreted at 72 h ([4]; rat, po, male rats, by gavage, 1 mmol/kg-0.1 mmol/kg, 2 ml/kg, tranexamic acid recovered in urine 0-72 hours vs. amount administered, trans form, hydrochloride salt, read-out: Absorption Mole % (average values of four tests)): 11 ± 1.4%; Antifibrinolytic effect / inhibition of clot lysis, in words ([2]; chandler loop): clot lysis was inhibited in a dose dependent manner; Absorption of administered tranexamic acid, oral route [5]: 35-40%; Undesired side effects, in words [6]: causes in some patients undesired side effects in the gastro-intestinal tract

From patent US4483867A, “Antifibrinolytically active derivatives of tranexamic acid” (KabiVitrum AB, priority 1981, dated 1984)
